From US20240034726A9, “MAP KINASE KINASE (MKK7) INHIBITORS AND USES THEREOF” (Dana-Farber Cancer Institute, Inc., priority 2020, published 2024)

Legend:
Assay in all cases: KINOMEscan
Format in all cases: binding
QSK = target: T1, QSK (Homo sapiens, UniProt Q9Y2K2)
T1 construct: KINOMEscan (Ambit)
Excerpt: (§1) The activity of the compounds was confirmed using Compound S-(I-1) in the KINOMEscan screening platform.

[1] = target: T2, EGFR(L747-S752del, P753S) (Homo sapiens, UniProt P00533, DEL747-752/P753S)
T2 construct: purchased KINOMEscan (Ambit)
Excerpt: as §1

MARK4 = target: T3, MARK4 (Homo sapiens, UniProt Q96L34)
T3 construct: purchased KINOMEscan screening platform (Ambit)
Excerpt: as §1

MET(M1250T) = target: T4, MET(M1250T) (Homo sapiens, UniProt P08581, M1250T)
T4 construct: purchased KINOMEscan screening platform (Ambit)
Excerpt: as §1

LZK = target: T5, LZK (Homo sapiens, UniProt O43283)
T5 construct: purchased KINOMEscan screening platform (Ambit)
Excerpt: as §1

EGFR(G719S) = target: T6, EGFR(G719S) (Homo sapiens, UniProt P00533, G719S)
T6 construct: purchased KINOMEscan (Ambit)
Excerpt: as §1

PRKR = target: T7, PRKR (Homo sapiens, UniProt P19525)
T7 construct: KINOMEscan (Ambit)
Excerpt: as §1

MAP4K3 = target: T8, MAP4K3 (Homo sapiens, UniProt Q8IVH8)
T8 construct: purchased KINOMEscan screening platform (Ambit)
Excerpt: as §1

JNK1 = target: T9, JNK1 (Homo sapiens, UniProt P45983)
T9 construct: purchased KINOMEscan (Ambit) screening platform
Excerpt: as §1

ULK3 = target: T10, ULK3 (Homo sapiens, UniProt Q6PHR2)
T10 construct: purchased KINOMEscan (Ambit) screening platform
Excerpt: as §1

CSNK1G2 = target: T11, CSNK1G2 (Homo sapiens, UniProt P78368)
T11 construct: purchased KINOMEscan (Ambit) screening platform
Excerpt: as §1

EGFR(T790M) = target: T12, EGFR(T790M) (Homo sapiens, UniProt P00533, T790M)
T12 construct: purchased KINOMEscan (Ambit)
Excerpt: as §1

EGFR(L858R) = target: T13, EGFR(L858R) (Homo sapiens, UniProt P00533, L858R)
T13 construct: purchased KINOMEscan (Ambit)
Excerpt: as §1

[2] = target: T14, JAK1(JH1domain-catalytic) (Homo sapiens, UniProt P23458)
T14 construct: JAK1(JH1domain); purchased KINOMEscan (Ambit) screening platform
Excerpt: as §1

[3] = target: T15, JAK2(JH1domain-catalytic) (Homo sapiens, UniProt O60674)
T15 construct: JAK2(JH1domain-; purchased KINOMEscan (Ambit) screening platform
Excerpt: as §1

EGFR(E746-A750del) = target: T16, EGFR(E746-A750del) (Homo sapiens, UniProt P00533, DEL746-750)
T16 construct: purchased KINOMEscan (Ambit)
Excerpt: as §1

CSK = target: T17, CSK (Homo sapiens, UniProt P41240)
T17 construct: purchased KINOMEscan (Ambit) screening platform
Excerpt: as §1

CHEK1 = target: T18, CHEK1 (Homo sapiens, UniProt O14757)
T18 construct: purchased KINOMEscan (Ambit) screening platform
Excerpt: as §1

DCAMKL1 = target: T19, DCAMKL1 (Homo sapiens, UniProt O15075)
T19 construct: purchased KINOMEscan (Ambit)
Excerpt: as §1

BTK = target: T20, BTK (Homo sapiens, UniProt Q06187)
T20 construct: purchased KINOMEscan (Ambit)
Excerpt: as §1

IRAK4 = target: T21, IRAK4 (Homo sapiens, UniProt Q9NWZ3)
T21 construct: purchased KINOMEscan (Ambit) screening platform
Excerpt: as §1

[4] = target: T22, RSK4(Kin.Dom.1-N-terminal) (Homo sapiens, UniProt Q9UK32)
T22 construct: Kin.Dom.1; purchased KINOMEscan (Ambit)
Excerpt: as §1

MST1 = target: T23, MST1 (Homo sapiens, UniProt Q13043)
T23 construct: purchased KINOMEscan screening platform (Ambit)
Excerpt: as §1

ULK1 = target: T24, ULK1 (Homo sapiens, UniProt O75385)
T24 construct: purchased KINOMEscan (Ambit) screening platform
Excerpt: as §1

EGFR(G719C) = target: T25, EGFR(G719C) (Homo sapiens, UniProt P00533, G719C)
T25 construct: purchased KINOMEscan (Ambit)
Excerpt: as §1

CDK3 = target: T26, CDK3 (Homo sapiens, UniProt Q00526)
T26 construct: purchased KINOMEscan (Ambit)
Excerpt: as §1

SIK = target: T27, SIK (Homo sapiens, UniProt P57059)
T27 construct: purchased KINOMEscan (Ambit)
Excerpt: as §1

CIT = target: T28, CIT (Homo sapiens, UniProt O14578)
T28 construct: purchased KINOMEscan (Ambit) screening platform
Excerpt: as §1

p38-alpha = target: T29, p38-alpha (Homo sapiens, UniProt Q16539)
T29 construct: purchased KINOMEscan (Ambit)
Excerpt: as §1

CSNK1G1 = target: T30, CSNK1G1 (Homo sapiens, UniProt Q9HCP0)
T30 construct: purchased KINOMEscan (Ambit) screening platform
Excerpt: as §1

PLK2 = target: T31, PLK2 (Homo sapiens, UniProt Q9NYY3)
T31 construct: purchased KINOMEscan (Ambit) screening platform
Excerpt: as §1

LATS2 = target: T32, LATS2 (Homo sapiens, UniProt Q9NRM7)
T32 construct: purchased KINOMEscan (Ambit) screening platform
Excerpt: as §1

FLT3(ITD) = test system: FLT3(ITD)
Excerpt: as §1

[5] = target: T33, EGFR(L747-E749del, A750P) (Homo sapiens, UniProt P00533, A750P/DEL747-749)
T33 construct: purchased KINOMEscan (Ambit)
Excerpt: as §1

CDK2 = target: T34, CDK2 (Homo sapiens, UniProt P24941)
T34 construct: purchased KINOMEscan (Ambit)
Excerpt: as §1

ARK5 = target: T35, ARK5 (Homo sapiens, UniProt O60285)
T35 construct: purchased KINOMEscan (Ambit)
Excerpt: as §1

[6] = target: T36, JAK1(JH2domain-pseudokinase) (Homo sapiens, UniProt P23458)
T36 construct: JAK1(JH2domain-; purchased KINOMEscan (Ambit) screening platform
Excerpt: as §1

[7] = target: T37, RSK4(Kin.Dom.2-C-terminal) (Homo sapiens, UniProt Q9UK32)
T37 construct: Kin.Dom.2; purchased KINOMEscan (Ambit)
Excerpt: as §1

PKMYT1 = target: T38, PKMYT1 (Homo sapiens, UniProt Q99640)
T38 construct: purchased KINOMEscan (Ambit) screening platform
Excerpt: as §1

JNK2 = target: T39, JNK2 (Homo sapiens, UniProt P45984)
T39 construct: purchased KINOMEscan (Ambit) screening platform
Excerpt: as §1

MET = target: T40, MET (Homo sapiens, UniProt P08581)
T40 construct: purchased KINOMEscan screening platform (Ambit)
Excerpt: as §1

EGFR(L747-T751del, Sins) = test system: EGFR(L747-T751del, Sins)
Excerpt: as §1

EGFR = target: T41, EGFR (Homo sapiens, UniProt P00533)
T41 construct: purchased KINOMEscan (Ambit)
Excerpt: as §1

DLK = target: T42, DLK (Homo sapiens, UniProt Q12852)
T42 construct: purchased KINOMEscan (Ambit)
Excerpt: as §1

EPHB2 = target: T43, EPHB2 (Homo sapiens, UniProt P29323)
T43 construct: purchased KINOMEscan (Ambit)
Excerpt: as §1

[8] = target: T44, TYK2(JH2domain-pseudokinase) (Homo sapiens, UniProt P29597)
T44 construct: TYK2(JH2domain); purchased KINOMEscan (Ambit) screening platform
Excerpt: as §1

PIP5K1C = target: T45, PIP5K1C (Homo sapiens, UniProt O60331)
T45 construct: purchased KINOMEscan (Ambit) screening platform
Excerpt: as §1

PFTK1 = target: T46, PFTK1 (Homo sapiens, UniProt O94921)
T46 construct: purchased KINOMEscan screening platform (Ambit)
Excerpt: as §1

MET(Y1235D) = target: T47, MET(Y1235D) (Homo sapiens, UniProt P08581, Y1235D)
T47 construct: purchased KINOMEscan screening platform (Ambit)
Excerpt: as §1

[9] = target: T48, TYK2(JH1domain-catalytic) (Homo sapiens, UniProt P29597)
T48 construct: TYK2(JH1domain); purchased KINOMEscan (Ambit) screening platform
Excerpt: as §1

MKK7 = target: T49, MKK7 (Homo sapiens, UniProt O14733)
T49 construct: purchased KINOMEscan screening platform (Ambit)
Excerpt: as §1

EPHA5 = target: T50, EPHA5 (Homo sapiens, UniProt P54756)
T50 construct: purchased KINOMEscan (Ambit)
Excerpt: as §1

CDC2L5 = target: T51, CDC2L5 (Homo sapiens, UniProt Q14004)
T51 construct: purchased KINOMEscan (Ambit)
Excerpt: as §1

JNK3 = target: T52, JNK3 (Homo sapiens, UniProt P53779)
T52 construct: purchased KINOMEscan (Ambit) screening platform
Excerpt: as §1

BMPR2 = target: T53, BMPR2 (Homo sapiens, UniProt Q13873)
T53 construct: purchased KINOMEscan (Ambit)
Excerpt: as §1

CDK8 = target: T54, CDK8 (Homo sapiens, UniProt P49336)
T54 construct: purchased KINOMEscan (Ambit)
Excerpt: as §1

CDK11 = target: T55, CDK11 (Homo sapiens, UniProt Q9BWU1)
T55 construct: purchased KINOMEscan (Ambit)
Excerpt: as §1

ITK = target: T56, ITK (Homo sapiens, UniProt Q08881)
T56 construct: purchased KINOMEscan (Ambit) screening platform
Excerpt: as §1

ACVR2B = target: T57, ACVR2B (Homo sapiens, UniProt Q13705)
T57 construct: purchased KINOMEscan (Ambit)
Excerpt: as §1

CSNK1G3 = target: T58, CSNK1G3 (Homo sapiens, UniProt Q9Y6M4)
T58 construct: purchased KINOMEscan (Ambit) screening platform
Excerpt: as §1

LOK = target: T59, LOK (Homo sapiens, UniProt O94804)
T59 construct: purchased KINOMEscan (Ambit) screening platform
Excerpt: as §1

MST3 = target: T60, MST3 (Homo sapiens, UniProt Q9Y6E0)
T60 construct: purchased KINOMEscan screening platform (Ambit)
Excerpt: as §1

EGFR(L861Q) = target: T61, EGFR(L861Q) (Homo sapiens, UniProt P00533, L861Q)
T61 construct: purchased KINOMEscan (Ambit)
Excerpt: as §1

SNARK = target: T62, SNARK (Homo sapiens, UniProt Q9H093)
T62 construct: purchased KINOMEscan (Ambit)
Excerpt: as §1

EGFR(S752-I759del) = target: T63, EGFR(S752-I759del) (Homo sapiens, UniProt P00533, DEL752-759)
T63 construct: purchased KINOMEscan (Ambit)
Excerpt: as §1

SYK = target: T64, SYK (Homo sapiens, UniProt P43405)
T64 construct: purchased KINOMEscan (Ambit)
Excerpt: as §1

EGFR(L858R, T790M) = target: T65, EGFR(L858R, T790M) (Homo sapiens, UniProt P00533, L858R/T790M)
T65 construct: purchased KINOMEscan (Ambit)
Excerpt: as §1

WNK1 = target: T66, WNK1 (Homo sapiens, UniProt Q9H4A3)
T66 construct: purchased KINOMEscan (Ambit) screening platform
Excerpt: as §1

MLK3 = target: T67, MLK3 (Homo sapiens, UniProt Q16584)
T67 construct: purchased KINOMEscan screening platform (Ambit)
Excerpt: as §1

T35 sequence (O60285 whole entry): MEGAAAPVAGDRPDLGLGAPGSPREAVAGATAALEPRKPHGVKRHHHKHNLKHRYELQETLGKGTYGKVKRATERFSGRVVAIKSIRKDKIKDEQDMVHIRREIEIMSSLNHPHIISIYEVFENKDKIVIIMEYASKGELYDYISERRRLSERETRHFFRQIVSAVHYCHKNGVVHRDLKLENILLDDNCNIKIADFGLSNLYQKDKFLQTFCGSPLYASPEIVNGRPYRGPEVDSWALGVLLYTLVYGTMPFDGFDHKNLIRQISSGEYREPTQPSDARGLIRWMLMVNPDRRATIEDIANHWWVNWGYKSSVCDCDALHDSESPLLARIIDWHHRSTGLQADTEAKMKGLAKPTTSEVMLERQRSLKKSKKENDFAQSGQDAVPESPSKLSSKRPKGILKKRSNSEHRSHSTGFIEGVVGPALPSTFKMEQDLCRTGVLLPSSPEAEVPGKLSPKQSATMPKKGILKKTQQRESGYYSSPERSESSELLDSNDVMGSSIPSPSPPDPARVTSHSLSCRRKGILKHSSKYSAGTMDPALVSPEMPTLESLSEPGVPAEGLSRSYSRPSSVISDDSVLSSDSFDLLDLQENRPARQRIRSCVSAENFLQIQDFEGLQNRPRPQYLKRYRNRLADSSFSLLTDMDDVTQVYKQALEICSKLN
T42 sequence (Q12852 whole entry): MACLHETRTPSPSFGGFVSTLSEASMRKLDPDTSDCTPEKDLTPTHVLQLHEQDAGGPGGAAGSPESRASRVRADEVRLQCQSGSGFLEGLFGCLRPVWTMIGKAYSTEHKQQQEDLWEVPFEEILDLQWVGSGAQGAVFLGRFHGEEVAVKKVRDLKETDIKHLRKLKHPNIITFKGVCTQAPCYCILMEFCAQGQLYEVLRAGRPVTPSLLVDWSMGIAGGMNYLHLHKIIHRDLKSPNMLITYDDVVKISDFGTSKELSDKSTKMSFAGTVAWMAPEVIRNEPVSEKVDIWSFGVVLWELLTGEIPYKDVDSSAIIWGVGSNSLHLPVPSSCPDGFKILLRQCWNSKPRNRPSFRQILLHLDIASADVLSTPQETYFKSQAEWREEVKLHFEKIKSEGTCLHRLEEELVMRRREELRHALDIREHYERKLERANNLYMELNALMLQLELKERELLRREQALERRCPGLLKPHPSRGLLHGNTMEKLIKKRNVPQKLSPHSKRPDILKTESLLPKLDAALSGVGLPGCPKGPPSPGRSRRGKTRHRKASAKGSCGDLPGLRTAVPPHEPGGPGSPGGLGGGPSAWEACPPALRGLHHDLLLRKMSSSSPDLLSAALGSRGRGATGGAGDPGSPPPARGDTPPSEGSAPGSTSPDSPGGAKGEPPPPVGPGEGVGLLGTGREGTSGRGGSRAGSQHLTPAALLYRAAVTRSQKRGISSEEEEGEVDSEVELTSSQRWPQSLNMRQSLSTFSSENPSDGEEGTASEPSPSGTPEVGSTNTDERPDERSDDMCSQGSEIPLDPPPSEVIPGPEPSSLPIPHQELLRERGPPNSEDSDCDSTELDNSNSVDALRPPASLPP
T1 sequence (Q9Y2K2 whole entry): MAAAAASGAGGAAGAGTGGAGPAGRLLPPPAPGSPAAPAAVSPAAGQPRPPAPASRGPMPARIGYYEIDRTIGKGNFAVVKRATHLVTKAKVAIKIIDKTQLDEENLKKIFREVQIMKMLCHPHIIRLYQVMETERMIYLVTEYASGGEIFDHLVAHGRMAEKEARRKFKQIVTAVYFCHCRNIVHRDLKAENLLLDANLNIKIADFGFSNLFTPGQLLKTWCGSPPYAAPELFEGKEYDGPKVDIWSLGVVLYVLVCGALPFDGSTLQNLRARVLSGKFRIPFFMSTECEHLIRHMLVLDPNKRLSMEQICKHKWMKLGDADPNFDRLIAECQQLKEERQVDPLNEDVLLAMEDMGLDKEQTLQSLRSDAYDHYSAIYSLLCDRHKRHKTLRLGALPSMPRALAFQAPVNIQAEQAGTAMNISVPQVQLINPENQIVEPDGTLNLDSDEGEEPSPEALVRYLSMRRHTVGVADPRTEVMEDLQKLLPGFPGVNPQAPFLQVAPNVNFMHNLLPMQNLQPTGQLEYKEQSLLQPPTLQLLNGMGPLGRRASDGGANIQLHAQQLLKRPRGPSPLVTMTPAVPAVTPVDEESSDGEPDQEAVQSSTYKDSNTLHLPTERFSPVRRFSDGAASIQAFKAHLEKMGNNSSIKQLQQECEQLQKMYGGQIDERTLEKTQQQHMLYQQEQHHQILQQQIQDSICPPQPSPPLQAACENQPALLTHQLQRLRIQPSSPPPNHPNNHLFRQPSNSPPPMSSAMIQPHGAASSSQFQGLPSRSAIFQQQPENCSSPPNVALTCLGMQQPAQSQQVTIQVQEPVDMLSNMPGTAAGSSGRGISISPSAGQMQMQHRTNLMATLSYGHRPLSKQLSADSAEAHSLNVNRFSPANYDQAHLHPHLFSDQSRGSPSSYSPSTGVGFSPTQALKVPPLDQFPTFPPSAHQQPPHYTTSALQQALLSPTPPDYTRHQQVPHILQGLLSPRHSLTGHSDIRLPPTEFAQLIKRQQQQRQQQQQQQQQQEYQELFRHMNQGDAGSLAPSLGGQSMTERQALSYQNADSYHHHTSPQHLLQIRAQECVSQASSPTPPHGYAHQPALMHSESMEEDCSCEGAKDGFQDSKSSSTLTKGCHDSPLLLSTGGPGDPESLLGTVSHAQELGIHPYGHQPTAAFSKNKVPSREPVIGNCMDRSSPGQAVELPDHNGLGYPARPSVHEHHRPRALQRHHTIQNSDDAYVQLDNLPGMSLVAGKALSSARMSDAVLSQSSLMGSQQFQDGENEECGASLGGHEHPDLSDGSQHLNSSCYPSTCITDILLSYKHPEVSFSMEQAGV
T49 sequence (O14733 whole entry): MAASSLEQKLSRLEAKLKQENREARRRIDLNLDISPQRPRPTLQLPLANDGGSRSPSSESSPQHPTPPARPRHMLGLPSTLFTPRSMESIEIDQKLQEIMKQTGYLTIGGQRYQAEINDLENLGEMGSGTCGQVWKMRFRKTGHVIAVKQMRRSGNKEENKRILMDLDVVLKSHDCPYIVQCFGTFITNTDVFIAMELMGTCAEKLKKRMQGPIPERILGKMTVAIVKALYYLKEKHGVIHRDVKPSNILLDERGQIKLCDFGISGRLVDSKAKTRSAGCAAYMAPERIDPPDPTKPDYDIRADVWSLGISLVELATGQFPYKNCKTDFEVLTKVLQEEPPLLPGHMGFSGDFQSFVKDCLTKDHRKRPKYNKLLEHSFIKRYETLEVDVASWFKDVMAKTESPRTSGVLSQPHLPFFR
T9 sequence (P45983 whole entry): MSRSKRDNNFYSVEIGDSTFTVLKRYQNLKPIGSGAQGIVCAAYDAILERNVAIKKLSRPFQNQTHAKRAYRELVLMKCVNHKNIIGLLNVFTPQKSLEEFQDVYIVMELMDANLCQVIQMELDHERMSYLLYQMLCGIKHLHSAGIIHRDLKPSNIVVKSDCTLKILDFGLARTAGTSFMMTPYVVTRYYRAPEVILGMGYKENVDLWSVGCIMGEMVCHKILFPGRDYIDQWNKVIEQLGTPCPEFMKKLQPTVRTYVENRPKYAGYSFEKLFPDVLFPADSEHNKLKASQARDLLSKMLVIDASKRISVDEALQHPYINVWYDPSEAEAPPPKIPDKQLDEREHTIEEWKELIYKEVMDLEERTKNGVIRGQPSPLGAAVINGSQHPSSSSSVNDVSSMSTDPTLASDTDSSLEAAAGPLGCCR
T37 sequence (Q9UK32 426-683 limits assumed): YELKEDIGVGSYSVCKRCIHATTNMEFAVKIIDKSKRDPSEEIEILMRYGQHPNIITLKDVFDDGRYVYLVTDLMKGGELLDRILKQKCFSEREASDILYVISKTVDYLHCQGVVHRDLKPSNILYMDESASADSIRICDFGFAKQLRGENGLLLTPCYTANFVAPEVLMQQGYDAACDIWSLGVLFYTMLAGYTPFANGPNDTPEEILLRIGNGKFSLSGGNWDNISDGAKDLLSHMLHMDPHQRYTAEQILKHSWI
T7 sequence (P19525 whole entry): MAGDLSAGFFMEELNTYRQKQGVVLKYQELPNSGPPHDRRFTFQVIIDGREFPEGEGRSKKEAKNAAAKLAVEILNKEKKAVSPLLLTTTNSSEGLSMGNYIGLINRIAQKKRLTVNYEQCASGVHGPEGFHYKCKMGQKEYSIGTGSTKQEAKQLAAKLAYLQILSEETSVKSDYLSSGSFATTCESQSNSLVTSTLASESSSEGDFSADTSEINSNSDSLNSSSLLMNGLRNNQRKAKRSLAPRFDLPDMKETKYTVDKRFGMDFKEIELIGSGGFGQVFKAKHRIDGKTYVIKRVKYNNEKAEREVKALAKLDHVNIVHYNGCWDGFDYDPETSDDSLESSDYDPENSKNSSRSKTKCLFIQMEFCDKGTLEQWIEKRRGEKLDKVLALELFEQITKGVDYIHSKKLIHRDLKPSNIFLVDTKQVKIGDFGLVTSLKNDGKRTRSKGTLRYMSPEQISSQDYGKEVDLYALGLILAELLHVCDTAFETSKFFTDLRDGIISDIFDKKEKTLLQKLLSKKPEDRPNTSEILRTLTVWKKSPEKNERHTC
T17 sequence (P41240 whole entry): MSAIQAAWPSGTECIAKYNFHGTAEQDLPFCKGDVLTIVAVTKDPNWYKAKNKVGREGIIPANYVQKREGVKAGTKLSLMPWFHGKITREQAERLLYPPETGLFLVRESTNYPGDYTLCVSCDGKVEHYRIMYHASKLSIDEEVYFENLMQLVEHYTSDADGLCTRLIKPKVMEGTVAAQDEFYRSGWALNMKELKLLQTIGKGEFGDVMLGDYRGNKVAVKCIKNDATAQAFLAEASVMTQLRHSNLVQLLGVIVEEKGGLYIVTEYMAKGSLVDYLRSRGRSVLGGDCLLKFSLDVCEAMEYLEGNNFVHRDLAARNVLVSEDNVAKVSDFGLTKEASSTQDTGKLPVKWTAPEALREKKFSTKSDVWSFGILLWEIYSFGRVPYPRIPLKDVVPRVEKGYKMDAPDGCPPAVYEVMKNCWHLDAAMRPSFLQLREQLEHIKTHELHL

## C=CC(=O)N1CCC(Nc2nccc(Oc3cc(C(=O)Nc4ccc(CN5CCN(CC)CC5)c(C(F)(F)F)c4)ccc3C)n2)C1 (stereo not drawn) [S-(I-1)]
QSK
  Score: 87
[1]
  Score: 38
MARK4
  Score: 100
MET(M1250T)
  Score: 99
LZK
  Score: 100
EGFR(G719S)
  Score: 81
PRKR
  Score: 85
MAP4K3
  Score: 93
JNK1
  Score: 28
ULK3
  Score: 78
CSNK1G2
  Score: 97
EGFR(T790M)
  Score: 90
EGFR(L858R)
  Score: 84
[2]
  Score: 62
[3]
  Score: 84
EGFR(E746-A750del)
  Score: 66
CSK
  Score: 58
CHEK1
  Score: 100
DCAMKL1
  Score: 99
BTK
  Score: 98
IRAK4
  Score: 81
[4]
  Score: 90
MST1
  Score: 100
ULK1
  Score: 94
EGFR(G719C)
  Score: 59
CDK3
  Score: 56
SIK
  Score: 87
CIT
  Score: 61
p38-alpha
  Score: 0
CSNK1G1
  Score: 91
PLK2
  Score: 89
LATS2
  Score: 100
FLT3(ITD)
  Score: 24
[5]
  Score: 52
CDK2
  Score: 77
ARK5
  Score: 83
[6]
  Score: 100
[7]
  Score: 91
PKMYT1
  Score: 89
JNK2
  Score: 0.35
MET
  Score: 100
EGFR(L747-T751del, Sins)
  Score: 43
EGFR
  Score: 68
DLK
  Score: 90
EPHB2
  Score: 91
[8]
  Score: 92
PIP5K1C
  Score: 52
PFTK1
  Score: 77
MET(Y1235D)
  Score: 96
[9]
  Score: 91
MKK7
  Score: 0.9
EPHA5
  Score: 87
CDC2L5
  Score: 65
JNK3
  Score: 52
BMPR2
  Score: 100
CDK8
  Score: 2.8
CDK11
  Score: 0
ITK
  Score: 98
ACVR2B
  Score: 93
CSNK1G3
  Score: 92
LOK
  Score: 0.35
MST3
  Score: 88
EGFR(L861Q)
  Score: 66
SNARK
  Score: 100
EGFR(S752-I759del)
  Score: 90
SYK
  Score: 24
EGFR(L858R, T790M)
  Score: 94
WNK1
  Score: 86
MLK3
  Score: 97
